EC50 data for 2 compounds are collected here from US20250163119A1, “COMPOUNDS FOR THE TREATMENT OF DIABETES OR OBESITY” (Eli Lilly and Company, priority 2023, published 2025).

For orientation: EC50 means the midpoint of the concentration-response curve.

Assay [1] has as its target T1, human CRHR2 (Homo sapiens, UniProt Q13324).
T1 construct: expressed in transfected cells
T1 sequence (Q13324 1-438 isoform Q13324-2): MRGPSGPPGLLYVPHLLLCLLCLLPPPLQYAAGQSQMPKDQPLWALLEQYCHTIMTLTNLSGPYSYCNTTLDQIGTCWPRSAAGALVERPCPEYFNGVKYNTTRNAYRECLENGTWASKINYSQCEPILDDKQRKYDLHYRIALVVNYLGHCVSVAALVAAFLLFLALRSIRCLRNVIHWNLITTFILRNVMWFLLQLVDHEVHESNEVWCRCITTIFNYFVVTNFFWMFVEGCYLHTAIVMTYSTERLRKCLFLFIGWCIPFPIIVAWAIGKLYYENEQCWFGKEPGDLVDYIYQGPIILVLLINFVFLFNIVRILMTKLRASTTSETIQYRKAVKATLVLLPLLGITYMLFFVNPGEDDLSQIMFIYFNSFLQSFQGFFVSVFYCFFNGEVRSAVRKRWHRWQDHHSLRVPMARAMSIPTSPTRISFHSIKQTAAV
In words: Human CRHR2 cAMP assay (HTRF) in HEK293 cells stably expressing human CRHR2. The settings on record: HEK293 cells overexpressing human CRHR2; relative EC50, maximum 10 nM human UCN2; mean ± SE; read-out: hCRHR2 cAMP EC50 (pM, ± SE). It is filed as cell-based. In a few lines: (§1)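 Peptide-stimulated cAMP was measured in stable HEK293 lines by HTRF ratio (665/620 nm), converted to pmol/well via standard curve. Assay buffer contained 0.25 mM IBMX, 0.1% casein and 5 mM HEPES pH 7.4. CRHR2b cells (5,000/well) were stimulated 30 min at room temperature; CRHR1 cells (25,000/well) 1 h at 37 °C.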
Background: cAMP levels reflect the balance of adenylyl cyclase and phosphodiesterase activity.

Assay [2] concerns the target T2, human CRHR1 (Homo sapiens, UniProt P34998).
T2 construct: expressed in transfected cells
T2 sequence (P34998 24-415): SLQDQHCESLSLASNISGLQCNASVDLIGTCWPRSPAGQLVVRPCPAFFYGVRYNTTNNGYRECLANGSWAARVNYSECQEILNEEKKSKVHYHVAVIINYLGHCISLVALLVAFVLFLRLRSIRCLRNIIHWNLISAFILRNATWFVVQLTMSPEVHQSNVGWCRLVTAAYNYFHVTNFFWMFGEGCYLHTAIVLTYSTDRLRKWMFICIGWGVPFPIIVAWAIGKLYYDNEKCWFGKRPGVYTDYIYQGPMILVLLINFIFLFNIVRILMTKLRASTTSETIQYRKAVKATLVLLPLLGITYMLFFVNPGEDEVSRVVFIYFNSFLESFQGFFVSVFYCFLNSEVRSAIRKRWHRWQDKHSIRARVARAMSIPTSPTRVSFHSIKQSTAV
Description: Human CRHR1 cAMP assay (HTRF) in HEK293 cells stably expressing human CRHR1. It is filed as cell-based. Conditions: HEK293 cells overexpressing human CRHR1; relative EC50, maximum 66 nM human UCN1; mean ± SE; read-out: hCRHR1 cAMP EC50 (pM, ± SE). In a few lines: as §1

*1 amine or outer side, *2 acyl side, *3 side chain or, on linkers, in order; H or OH if unused. Where a SMILES comes first, the peptide text is derived from it. Side-chain parts run from the residue outwards. [ ]: non-standard residue; d: D form. The star is where a group is joined. C20 diacid = O=C(O)CCCCCCCCCCCCCCCCCCC(=O)*; γGlu = O=C(O)[C@H](CCC(=O)[*:2])N[*:1]; εLys = N[C@@H](CCCCN[*:1])C(=O)[*:2]; NMeI = CC[C@H](C)[C@H](NC)C(=O)O; αMeL = CC(C)C[C@](C)(N)C(=O)O; AEEA = NCCOCCOCC(=O)O; Aib = CC(C)(N)C(=O)O

With “{C20 diacid-εLys-AEEA-γGlu}-GSPSIVTS[αMeL]DVPT[Aib][αMeL]LQKILEQERAEKARQQATEAAEILAQV-NH2 [SEQ ID NO: 25]”, the EC50 in assay [1] is 6.9 ± 0.5 pM; in assay [2], over 1e+07 pM.
`CC[C@H](C)[C@H](NC)C(=O)N[C@H](C(=O)N[C@H](C(=O)N[C@@H](CO)C(=O)N[C@@H](CC(C)C)C(=O)N[C@@H](CC(=O)O)C(=O)N[C@H](C(=O)N1CCC[C@H]1C(=O)N[C@H](C(=O)NCC(=O)N[C@@](C)(CC(C)C)C(=O)N[C@@H](CC(C)C)C(=O)N[C@@H](CCC(N)=O)C(=O)N[C@@H](CCCCN)C(=O)N[C@@H](CC(C)C)C(=O)N[C@@H](CC(C)C)C(=O)N[C@@H](CCC(=O)O)C(=O)N[C@@H](CCC(N)=O)C(=O)N[C@@H](CCC(=O)O)C(=O)N[C@@H](CCCNC(=N)N)C(=O)N[C@@H](C)C(=O)N[C@@H](CCC(=O)O)C(=O)N[C@@H](CCCCN)C(=O)N[C@@H](C)C(=O)N[C@@H](CCCNC(=N)N)C(=O)N[C@@H](CCC(N)=O)C(=O)N[C@@H](CCC(N)=O)C(=O)N[C@@H](C)C(=O)N[C@@H](CCCCNC(=O)COCCOCCNC(=O)COCCOCCNC(=O)CC[C@H](NC(=O)CCCCCCCCCCCCCCCCCCC(=O)O)C(=O)O)C(=O)N[C@@H](CCC(=O)O)C(=O)N[C@@H](C)C(=O)N[C@@H](C)C(=O)N[C@@H](CCC(=O)O)C(=O)N[C@H](C(=O)N[C@@H](CC(C)C)C(=O)N[C@@H](C)C(=O)N[C@@H](CCC(N)=O)C(=O)N[C@H](C(N)=O)C(C)C)[C@@H](C)CC)[C@@H](C)CC)C(C)C)[C@@H](C)O)C(C)C` [SEQ ID NO: 50, (NMeI) VTSLDVPIG αMeL LQKLLEQERAEKARQQAK((2-[2-(2-Amino-ethoxy)-ethoxy]-acetyl)2-γE-CO-(CH2)18-CO2H)EAAEILAQV-NH2] (H-[NMeI]VTSLDVPIG[αMeL]LQKLLEQERAEKARQQAK([AEEA-AEEA-γGlu-C20 diacid])EAAEILAQV-NH2): the EC50 in assay [1] is 22.4 ± 3.6 pM; in assay [2] it was over 1e+07 pM.
